Assay results from US6124269A, “2-Halo-6-O-substituted ketolide derivatives” (priority 1998, dated 2000).
≈ marks a conversion by molar mass, not a printed value.

Legend:
Type in all cases: cell-based
[1] = test system: Micrococcus luteus ATCC 9341; experiment: In vitro agar dilution MIC, organism code OO; details: Table 1B, unit assumed
Procedure: (§1) Representative compounds of the present invention were assayed in vitro for antibacterial activity as follows: Twelve petri dishes containing successive aqueous dilutions of the test compound mixed with 10 mL of sterilized Brain Heart Infusion (BHI) agar (Difco 0418-01-5) were prepared. Each plate was inoculated with 1:100 (or 1:10 for slow-growing strains, such as Micrococcus and Streptococcus) dilutions of up to 32 different microorganisms, using a Steers replicator block. The inoculated plates were incubated at 35-37° C. for 20 to 24 hours. In addition, a control plate, using BHI agar containing no test compound, was prepared and incubated at the beginning and end of each test.
(§2) An additional plate containing a compound having known susceptibility patterns for the organisms being tested and belonging to the same antibiotic class as the test compound was also prepared and incubated as a further control, as well as to provide test-to-test comparability.
(§3) After incubation, each plate was visually inspected. The minimum inhibitory concentration (MIC) was defined as the lowest concentration of drug yielding no growth, a slight haze, or sparsely isolated colonies on the inoculum spot as compared to the growth control.

[2] = test system: Streptococcus pneumoniae ATCC 6303; experiment: In vitro agar dilution MIC, organism code XX; details: Table 1B, unit assumed
Procedure: as §1, §2, §3

[3] = test system: Enterococcus faecium ATCC 8043; experiment: In vitro agar dilution MIC, organism code II; details: Table 1B, unit assumed
Procedure: as §1, §2, §3

[4] = test system: Staphylococcus epidermidis 3519; experiment: In vitro agar dilution MIC, organism code HH; details: Table 1B, in µg/mL (unit assumed)
Procedure: as §1, §2, §3

[5] = test system: Streptococcus agalactiae CMX 508; experiment: In vitro agar dilution MIC, organism code KK; details: Table 1B, unit assumed
Procedure: as §1, §2, §3

[6] = test system: Escherichia coli DC-2; experiment: In vitro agar dilution MIC, organism code SS; details: Table 1B, unit assumed
Procedure: as §1, §2, §3

[7] = test system: Streptococcus pyogenes EES61; experiment: In vitro agar dilution MIC, organism code LL; details: Table 1B, unit assumed
Procedure: as §1, §2, §3

[8] = test system: Streptococcus pneumoniae GYR 1171; experiment: In vitro agar dilution MIC, organism code YY; details: Table 1B, unit assumed
Procedure: as §1, §2, §3

[9] = test system: Streptococcus pyogenes PIU 2548; experiment: In vitro agar dilution MIC, organism code NN; details: Table 1B, unit assumed
Procedure: as §1, §2, §3

[10] = test system: Streptococcus pyogenes 930; experiment: In vitro agar dilution MIC, organism code MM; details: Table 1B, unit assumed
Procedure: as §1, §2, §3

[11] = test system: Staphylococcus aureus ATCC 6538P; experiment: In vitro agar dilution MIC, organism code AA; details: Table 1B, unit assumed
Procedure: as §1, §2, §3

[12] = test system: Candida albicans CCH 442; experiment: In vitro agar dilution MIC, organism code TT; details: Table 1B, unit assumed
Procedure: as §1, §2, §3

[13] = test system: Staphylococcus aureus CMX 553; experiment: In vitro agar dilution MIC, organism code FF; details: Table 1B, unit assumed
Procedure: as §1, §2, §3

[14] = test system: Staphylococcus aureus 1775; experiment: In vitro agar dilution MIC, organism code GG; details: Table 1B, unit assumed
Procedure: as §1, §2, §3

[15] = test system: Streptococcus bovis A-5169; experiment: In vitro agar dilution MIC, organism code JJ; details: Table 1B, unit assumed
Procedure: as §1, §2, §3

[16] = test system: Escherichia coli JUHL; experiment: In vitro agar dilution MIC, organism code QQ; details: Table 1B, in µg/mL (unit assumed)
Procedure: as §1, §2, §3

[17] = test system: Nocardia asteroides ATCC 9970; experiment: In vitro agar dilution MIC, organism code VV; details: Table 1B, in µg/mL (unit assumed)
Procedure: as §1
as §2, with “comparability. Erythromycin A was used for this purpose.” for “comparability.”
as §3

[18] = test system: Haemophilis influenzae DILL AMP R; experiment: In vitro agar dilution MIC, organism code WW; details: Table 1B, unit assumed
Procedure: as §1, §2, §3

[19] = test system: Streptococcus pneumoniae 5979; experiment: In vitro agar dilution MIC, organism code ZZ; details: Table 1B, unit assumed
Procedure: as §1, §2, §3

[20] = test system: Staphylococcus aureus A5177; experiment: In vitro agar dilution MIC, organism code BB; details: Table 1B, in µg/mL (unit assumed)
Procedure: as §1, §2, §3

[21] = test system: Mycobacterium smegmatis ATCC 114; experiment: In vitro agar dilution MIC, organism code UU; details: Table 1B, in µg/mL (unit assumed)
Procedure: as §1, §2, §3

[22] = test system: Micrococcus luteus ATCC 4698; experiment: In vitro agar dilution MIC, organism code PP; details: Table 1B, in µg/mL (unit assumed)
Procedure: as §1, §2, §3

[23] = test system: Staphylococcus aureus CMX 642A; experiment: In vitro agar dilution MIC, organism code DD; details: Table 1B, unit assumed
Procedure: as §1, §2, §3

[24] = test system: Staphylococcus aureus A-5278; experiment: In vitro agar dilution MIC, organism code CC; details: Table 1B, unit assumed
Procedure: as §1, §2, §3

[25] = test system: Streptococcus pneumoniae 5649; experiment: In vitro agar dilution MIC, organism code ZZA; details: Table 1B, unit assumed
Procedure: as §1, §2, §3

[26] = test system: Escherichia coli SS; experiment: In vitro agar dilution MIC, organism code RR; details: Table 1B, in µg/mL (unit assumed)
Procedure: as §1, §2, §3

[27] = test system: Staphylococcus aureus NCTC10649M; experiment: In vitro agar dilution MIC, organism code EE; details: Table 1B, unit assumed
Procedure: as §1, §2, §3

SMILES | MIC [1] [µg/mL] | MIC [2] [µg/mL] | MIC [3] [µg/mL] | MIC [4] | MIC [5] [µg/mL] | MIC [6] [µg/mL] | MIC [7] [µg/mL] | MIC [8] [µg/mL] | MIC [9] [µg/mL] | MIC [10] [µg/mL] | MIC [11] [µg/mL] | MIC [12] [µg/mL] | MIC [13] [µg/mL] | MIC [14] [µg/mL] | MIC [15] [µg/mL] | MIC [16] | MIC [17] | MIC [18] [µg/mL] | MIC [19] [µg/mL] | MIC [20] | other results
CC[C@H]1OC(=O)C(C)(F)C(=O)[C@H](C)[C@@H](O[C@@H]2O[C@H](C)C[C@H](N(C)C)[C@H]2O)[C@](C)(OCC#CC(=O)c2ccc(Cl)nc2)C[C@@H](C)C(=O)[C@H](C)[C@H]2NC(=O)O[C@@]21C (stereo partly drawn) [Example 25] | 0.2 (≈ 0.252 µM) | ≤ 0.004 | 0.2 (≈ 0.252 µM) | 0.39 | 0.1 (≈ 0.126 µM) | > 100 | 0.1 (≈ 0.126 µM) | ≤ 0.004 | 0.39 (≈ 0.491 µM) | 6.2 (≈ 7.81 µM) | 0.39 (≈ 0.491 µM) | > 100 | 0.39 (≈ 0.491 µM) | > 100 | 0.1 (≈ 0.126 µM) | > 100 | 0.2 | 2 (≈ 2.52 µM) | 0.06 (≈ 0.0755 µM) | 0.39 | MIC [21]: 0.78; MIC [22]: 0.39; MIC [23]: 0.39 µg/mL (≈ 0.491 µM); MIC [24]: > 100 µg/mL; MIC [25]: 0.06 µg/mL (≈ 0.0755 µM); MIC [26]: 3.1; MIC [27]: 0.78 µg/mL (≈ 0.982 µM)
CC[C@H]1OC(=O)[C@@](C)(F)C(=O)[C@H](C)[C@@H](O[C@@H]2O[C@H](C)C[C@H](N(C)C)[C@H]2O)[C@](C)(OC/C=C/c2cnc3ncccc3c2)C[C@@H](C)C(=O)[C@H](C)[C@H]2NC(=O)O[C@@]21C [Example 11] | 0.01 (≈ 0.0127 µM) | ≤ 0.004 | 0.05 (≈ 0.0637 µM) | 0.05 | 0.01 (≈ 0.0127 µM) | 12.5 (≈ 15.9 µM) | 0.39 (≈ 0.497 µM) | ≤ 0.004 | 0.01 (≈ 0.0127 µM) | 0.1 (≈ 0.127 µM) | 0.05 (≈ 0.0637 µM) | > 100 | 0.05 (≈ 0.0637 µM) | 100 (≈ 127 µM) | 0.01 (≈ 0.0127 µM) | 25 | 0.01 | 2 (≈ 2.55 µM) | 0.125 (≈ 0.159 µM) | 0.05 | MIC [21]: 0.78; MIC [22]: 0.05; MIC [23]: 0.05 µg/mL (≈ 0.0637 µM); MIC [24]: > 100 µg/mL; MIC [25]: 0.25 µg/mL (≈ 0.319 µM); MIC [26]: 0.2; MIC [27]: 0.05 µg/mL (≈ 0.0637 µM)
CC[C@H]1OC(=O)[C@@](C)(F)C(=O)[C@H](C)[C@@H](O[C@@H]2O[C@H](C)C[C@H](N(C)C)[C@H]2O)[C@](C)(OC/C=C/c2cnc3ccc(NC)cc3c2)C[C@@H](C)C(=O)[C@H](C)[C@H]2NC(=O)O[C@@]21C [Example 16] | 0.01 (≈ 0.0123 µM) | 0.03 (≈ 0.0369 µM) | 0.02 (≈ 0.0246 µM) | 0.05 | 0.01 (≈ 0.0123 µM) | 50 (≈ 61.5 µM) | 0.01 (≈ 0.0123 µM) | 0.03 (≈ 0.0369 µM) | 0.05 (≈ 0.0615 µM) | 0.39 (≈ 0.48 µM) | 0.05 (≈ 0.0615 µM) | > 100 | 0.05 (≈ 0.0615 µM) | > 100 | ≤ 0.005 | 50 | 0.01 | 2 (≈ 2.46 µM) | 1 (≈ 1.23 µM) | 0.05 | MIC [21]: 0.39; MIC [22]: 0.05; MIC [23]: 0.05 µg/mL (≈ 0.0615 µM); MIC [24]: > 100 µg/mL; MIC [25]: 0.25 µg/mL (≈ 0.308 µM); MIC [26]: 0.2; MIC [27]: 0.05 µg/mL (≈ 0.0615 µM)
